Experimental data published in paper PMC9546217, “Exploring novel nitrofuranyl sulfonohydrazides as anti‐Leishmania and anti‐cancer agents: Synthesis, in vitro efficacy and hit identification” (Chemical Biology & Drug Design, 2022).
Where two headings read alike, the source gives them in different places.

Key:
[1] = system: L. donovani strain 1S promastigotes; test: Antipromastigote assay (resazurin); format: cell-based; details: L. donovani 1S, read-out: 1S IC50 ± SD, Promastigote
Method: (§1) The antipromastigote activity of synthesized compounds was evaluated as described previously by Mangwegape et al. ([2021]) using three strains of L. donovani (1S (MHOM/SD/62/1S) and 9515 (MHOM/IN/95/9515)) and L. major (IR‐173 [MHOM/IR/−173]). The assay method is available in the Supinfo S1.
(§2) The antipromastigote activity of synthesized compounds was evaluated using a modified, resazurin-based method of Kulshrestha et al. ^2 and Siqueira-Neto et al. ^3 and on three Leishmania strains. Leishmania donovani (strains 1S (MHOM/SD/62/1S) and 9515 (MHOM/IN/95/9515)) and L. major (strain IR-173 (MHOM/IR/-173)) promastigotes were cultured in M199 with Hank's salts and 0.68 mM L-glutamine (Sigma Aldrich) supplemented with 50 U/mL Penicillin/Streptomycin solution (Lonza), 4.2 mM sodium bicarbonate, 25 mM Hepes, 10% fetal bovine serum, 0.25% hemin, 0.1% biotin, and 10 mM adenine (Sigma Aldrich) and the pH adjusted to 7.3 – 7.4. The promastigotes were maintained at 25 °C.
(§3) Amphothericin B (10 μM) served as the standard drug and growth medium without parasites served as the blank. The plates were incubated for 48 hours at 25 °C in humidified atmosphere. After incubation, 50 μL of resazurin solution (0.01% in PBS) was added to each well and the plates were further incubated at 25 °C in the dark for 24 hours. Absorbance was measured at 570 nm and 600 nm using the Thermofisher Scientific GO Multiscan plate reader. Data analysis was performed for each biological replicate using SkanIt 4.0 Research Edition software. Background absorbance of resazurin (600 nm) was subtracted from the absorbance values of resorufin (570 nm). The mean absorbance calculated and the percentage growth inhibition and cell viability were determined by the following equations: […]
(§4) The IC50 and Z-score were determined for each compound’s three biological replicates using the cell viability % values and GraphPad Prism 5. The mean IC50 of the biological replicates with standard deviation (SD) served as the final IC50 of each compound.

[2] = system: L. donovani strain 9515 promastigotes; test: Antipromastigote assay (resazurin); format: cell-based; details: L. donovani 9515, read-out: 9515 IC50 ± SD, Promastigote
Method: as §1, §2, §3, §4

[3] = system: L. major strain IR‐173 promastigotes; test: Antipromastigote assay (resazurin); format: cell-based; details: L. major IR‐173, read-out: Antileishmanial activity, IC50 ± SD, Promastigote
Method: as §1, §2, §3, §4

[4] = system: L. donovani strain 1S amastigotes; test: Anti-amastigote assay (intramacrophage, THP-1 host, resazurin); format: cell-based; details: for IC50: L. donovani 1S, read-out: 1S IC50 ± SD, Amastigote; for Selectivity index SI4: L. donovani 1S: IC50 THP‐1/IC50 amastigote; for Selectivity index SI3: L. donovani 1S: IC50 Vero/IC50 amastigote; for Specificity index SpI2: L. donovani 1S: IC50 promastigote/IC50 amastigote
Method: (§5) The activities of synthesized compounds against the intramacrophage parasites of the three Leishmania strains were evaluated using a modified, resazurin‐based method (Jain et al., [2012]; Njanpa et al., [2021]). Suspension cultures of human acute monocytic leukemia (THP‐1) cells were maintained in RPMI‐1640 medium (Sigma Aldrich) supplemented with 10% FBS and 1% penicillin–streptomycin, at 37°C and 5% CO2 in a humidified atmosphere. Duplicate 96‐well plates (for respective anti‐amastigote and cytotoxicity assays) were seeded with 200 μl of a 2.5 × 10^5 cells/ml suspension treated with 25 ng/ml phorbol 12‐myristate 13‐acetate (PMA), followed by 48‐h incubation to promote differentiation into adherent macrophages.
(§6) For the anti‐amastigote assay, differentiated plates were carefully washed with PBS, followed by the addition of 200 μl of stationary phase promastigotes in RPMI 1640 medium with 2% FBS. An MOI of 30:1 was used for all three Leishmania strains. The parasite‐treated plates were incubated for 24 h at 32°C (L. major) or 37°C (L. donovani) and 5% CO2 to promote infection of the macrophages. […] Blanks were represented by growth medium without cells, as well as parasite‐free THP‐1 cells. The treated plates were incubated for 72 h.
(§7) After incubation, the plates were gently washed three times with PBS to remove any remaining extracellular parasites. The wells were then treated with 20 μl of 0.05% sodium dodecyl sulfate in PBS for 30 s to lyse the host macrophages. Lysis was terminated by adding 180 μl promastigote growth medium with 10% FBS. To initiate the resazurin assay, 10 μl of resazurin solution (0.025% in PBS) was added to all wells and the plates were incubated for 24 h at 32°C (L. major) or 37°C (L. donovani) and 5% CO2. Absorbance measurements, calculations, and IC50 determinations were performed as described for the antipromastigote assay (Supinfo S1).

[5] = system: L. donovani strain 9515 amastigotes; test: as above; format: cell-based; details: for IC50: L. donovani 9515, read-out: 9515 IC50 ± SD, Amastigote; for Selectivity index SI6: L. donovani 9515: IC50 THP‐1/IC50 amastigote; for Selectivity index SI5: L. donovani 9515: IC50 Vero/IC50 amastigote; for Specificity index SpI3: L. donovani 9515: IC50 promastigote/IC50 amastigote
Method: as §5, §6, §7

[6] = system: L. major strain IR‐173 amastigotes; test: as above; format: cell-based; details: for IC50: read-out: Antileishmanial activity, IC50 ± SD, Amastigote; for Specificity index SpI1: L. major IR‐173: IC50 promastigote/IC50 amastigote; for Selectivity index SI2: L. major: IC50 THP‐1/IC50 amastigote
Method: as §5, §6, §7

[7] = Cytotoxicity on differentiated host THP-1 macrophages, resazurin assay; format: cell-based, human; details: human, PMA-differentiated THP-1 macrophages, read-out: Cytotoxicity, IC50 ± SD, THP‐1
Method: Duplicate 96‐well plates (for respective anti‐amastigote and cytotoxicity assays) were seeded with 200 μl of a 2.5 × 10^5 cells/ml suspension treated with 25 ng/ml phorbol 12‐myristate 13‐acetate (PMA), followed by 48‐h incubation to promote differentiation into adherent macrophages.
Cytotoxicity of the compounds on the differentiated host THP-1 cells were also evaluated. As mentioned, duplicate plates of differentiated THP-1 cells were prepared during the anti-amastigote assay. These plates were incubated for 72 hours to differentiate, instead of replacing the growth medium with parasite-containing medium after 48 hours. […] Blanks were growth medium without cells. The treated plates were incubated for 72 hours, followed by the addition of 50 μL of resazurin solution (0.01% in PBS) to each well and 24-hour incubation.

[8] = Basal cytotoxicity, resazurin assay; details: African green monkey
Method: The assay method is available in the Supinfo S1.
African green monkey kidney epithelial (Vero) cells (Cellonex, South Africa) were cultured and the basal cytotoxicity of the synthesized compounds with antileishmanial and/or anticancer activity was evaluated using the resazurin assay, as described in Mangwegape et al. ^4 Emetine served as the standard cytotoxic drug. Further use of reference drugs, controls, data analysis, calculations and IC50 determinations were identical to that of the antileishmanial assay.

[9] = Leishmania major, THP-1, L. major IR‐173

Compound: Cc1ccc(S(=O)(=O)N/N=C/c2ccc([N+](=O)[O-])o2)cc1 [2c, (E)-4-Methyl-N'-[(5-nitrofuran-2-yl)methylene]benzenesulfonohydrazide]
- IC50 ([1]; Leishmania donovani): > 10 µM
- IC50 ([2]; Leishmania donovani): > 10 µM
- IC50 ([3]; Leishmania major): > 10 µM
- IC50 ([4]; Leishmania donovani, THP-1): > 10 µM
- IC50 ([5]; Leishmania donovani, THP-1): > 10 µM
- IC50 [6, 9]: > 10 µM

Compound: CC(C)c1ccc(S(=O)(=O)N/N=C/c2ccc([N+](=O)[O-])o2)cc1 [2d, (E)-4-Isopropyl-N'-[(5-nitrofuran-2-yl)methylene]benzenesulfonohydrazide]
- IC50 ([1]; Leishmania donovani): 5 ± 1.32 µM
- IC50 ([2]; Leishmania donovani): 3.62 ± 0.65 µM
- IC50 ([3]; Leishmania major): 4.71 ± 0.33 µM
- IC50 at 72 h [7]: 93.1 ± 3.51 µM
- IC50 ([4]; Leishmania donovani, THP-1): > 10 µM
- IC50 ([5]; Leishmania donovani, THP-1): > 10 µM
- Specificity index SpI1 [6]: 0.57
- IC50 ([6]; L. major IR‐173): 8.3 ± 0.78 µM
- Selectivity index SI2 [6]: 11
- IC50 [6, 9]: < 10 µM
- IC50 ([8]; Vero cells (kidney epithelial)): 22.2 ± 0.8 µM

Compound: CC(C)(C)c1ccc(S(=O)(=O)N/N=C/c2ccc([N+](=O)[O-])o2)cc1 [2f, (E)-4-(tert-Butyl)-N'-[(5-nitrofuran-2-yl)methylene]benzenesulfonohydrazide]
- IC50 ([1]; Leishmania donovani): 5.29 ± 0.69 µM
- IC50 ([2]; Leishmania donovani): 3.5 ± 0.58 µM
- IC50 ([3]; Leishmania major): 6.93 ± 0.83 µM
- IC50 at 72 h [7]: 84.6 ± 2.16 µM
- Selectivity index SI4 [4]: 13
- Selectivity index SI3 [4]: 5
- Specificity index SpI2 [4]: 0.83
- IC50 ([4]; Leishmania donovani, THP-1): 6.36 µM
- Selectivity index SI6 [5]: 9
- Selectivity index SI5 [5]: 3
- Specificity index SpI3 [5]: 0.36
- IC50 ([5]; Leishmania donovani, THP-1): 9.62 ± 1.15 µM
- IC50 [6, 9]: > 10 µM
- IC50 ([8]; Vero cells (kidney epithelial)): 29.2 ± 5.86 µM

Compound: O=[N+]([O-])c1ccc(/C=N/NS(=O)(=O)c2ccc(-c3ccccc3)cc2)o1 [2h, (E)-N'-[(5-Nitrofuran-2-yl)methylene]-(1,1'-biphenyl)-4-sulfonohydrazide]
- IC50 ([1]; Leishmania donovani): 1.45 ± 0.16 µM
- IC50 ([2]; Leishmania donovani): 1.53 ± 0.14 µM
- IC50 ([3]; Leishmania major): 2.49 ± 0.51 µM
- IC50 at 72 h [7]: 50.4 ± 2.26 µM
- Selectivity index SI4 [4]: 17
- Selectivity index SI3 [4]: 6
- Specificity index SpI2 [4]: 0.49
- IC50 ([4]; Leishmania donovani, THP-1): 2.94 ± 0.3 µM
- Selectivity index SI6 [5]: 8
- Selectivity index SI5 [5]: 3
- Specificity index SpI3 [5]: 0.24
- IC50 ([5]; Leishmania donovani, THP-1): 6.29 ± 0.62 µM
- IC50 [6, 9]: > 10 µM
- IC50 ([8]; Vero cells (kidney epithelial)): 16.4 ± 5.8 µM

Compound: O=[N+]([O-])c1ccc(/C=N/NS(=O)(=O)c2cccc3c2OCCO3)o1 [2l, (E)-N'-[(5-Nitrofuran-2-yl)methylene]-2,3-dihydrobenzo[b][1,4]dioxine-5-sulfonohydrazide]
- IC50 ([1]; Leishmania donovani): 9.24 ± 1.32 µM
- IC50 ([2]; Leishmania donovani): 7.25 ± 0.11 µM
- IC50 ([3]; Leishmania major): 8.1 ± 0.03 µM
- IC50 at 72 h [7]: > 100 µM
- Selectivity index SI4 [4]: > 16
- Selectivity index SI3 [4]: 6
- Specificity index SpI2 [4]: 1.45
- IC50 ([4]; Leishmania donovani, THP-1): 6.36 µM
- Selectivity index SI6 [5]: > 13
- Selectivity index SI5 [5]: 5
- Specificity index SpI3 [5]: 0.92
- IC50 ([5]; Leishmania donovani, THP-1): 7.85 ± 0.21 µM
- IC50 [6, 9]: > 10 µM
- IC50 ([8]; Vero cells (kidney epithelial)): 41.2 ± 3.3 µM

Compound: O=Cc1ccc([N+](=O)[O-])o1 [NFA, 5‐nitro‐2‐furaldehyde, reference compound]
- IC50 ([1]; Leishmania donovani): 6.39 ± 0.26 µM
- IC50 ([2]; Leishmania donovani): > 10 µM
- IC50 ([3]; Leishmania major): 7.28 ± 0.1 µM
- IC50 ([4]; Leishmania donovani, THP-1): > 10 µM
- Selectivity index SI6 [5]: 9
- Selectivity index SI5 [5]: 3
- IC50 ([5]; Leishmania donovani, THP-1): 8.56 ± 0.65 µM
- Specificity index SpI1 [6]: 0.87
- Selectivity index SI2 [6]: 10
- Selectivity index SI1 ([6]; L. major: IC50 Vero/IC50 amastigote): 3
- IC50 [6, 9]: 8.35 ± 0.89 µM
- IC50 ([8]; Vero cells (kidney epithelial)): 23.2 ± 2.62 µM

Compound: O=C1CN(/N=C/c2ccc([N+](=O)[O-])o2)C(=O)N1 [NFT, nitrofurantoin, reference compound]
- IC50 ([1]; Leishmania donovani): > 10 µM
- IC50 ([2]; Leishmania donovani): > 10 µM
- IC50 ([3]; Leishmania major): > 10 µM
- IC50 at 72 h [7]: > 100 µM
- IC50 ([4]; Leishmania donovani, THP-1): > 10 µM
- IC50 ([5]; Leishmania donovani, THP-1): 8.56 ± 1.95 µM
- IC50 [6, 9]: > 10 µM
- IC50 [8]: > 100 µM

Compound: (E)-2,4,6-Trimethyl-N'-[(5-nitrofuran-2-yl)methylene]benzenesulfonohydrazide [2e]
- IC50 [1]: 3.04 ± 0.04 µM
- IC50 [2]: 3.97 ± 1.08 µM
- IC50 [3]: 7.09 ± 0.74 µM
- IC50 [4]: > 10 µM
- Selectivity index SI6 [5]: > 16
- Selectivity index SI5 [5]: 6
- Specificity index SpI3 [5]: 0.65
- IC50 [5]: 6.14 ± 0.83 µM
- IC50 ([6]; L. major IR‐173): > 10 µM
